From patent US10123540B1, “Disinfectant material” (PEN Inc., priority 2014, dated 2018)

Tests used:
[1] = tested on: feline calcivirus ATCC VR-782; assay: Antiviral surface test, Modified ASTM E1053, limited to 10 minutes; conditions: 20 mg/L in a water based solution applied to a surface; 10 minutes exposure; non-enveloped virus
Method: Copper ions (20 mg/L) in a water based solution were applied to a surface with the non-enveloped feline calcivirus ATCC VR-782. […] In our case we wanted to have an idea about the rate of killing and this is why we limited the test to 10 minutes.

Human Corona Virus 229E = conditions: 10 minutes
[2] = tested on: H1N1 Influenza A, Strain A-California; assay: Towelette antiviral test, modified AATCC 100; conditions: towelettes embedded with water based solution at 20 mg/L
Method: A number of other tests were performed against H1N1 Influenza A, Strain A-California, and Human Corona Virus 229E.

Molecule | reduction relative to the control [1] [%] | percent reduction (Human Corona Virus 229E) [%] | reduction vs time zero control [2] [%]
[Cu+2] [Copper ions] | 82.22 | – | –
copper iodide | – | 99.99 | 99.7
